The results in this text go back to US20070197509A1, “Compositions and methods for modulating gated ion channels” (PainCeptor Pharma Corporation, priority 2005, published 2007).

Experiment [1] addresses T1, hASIC1a (Homo sapiens, UniProt P78348).
T1 sequence (P78348 1-528): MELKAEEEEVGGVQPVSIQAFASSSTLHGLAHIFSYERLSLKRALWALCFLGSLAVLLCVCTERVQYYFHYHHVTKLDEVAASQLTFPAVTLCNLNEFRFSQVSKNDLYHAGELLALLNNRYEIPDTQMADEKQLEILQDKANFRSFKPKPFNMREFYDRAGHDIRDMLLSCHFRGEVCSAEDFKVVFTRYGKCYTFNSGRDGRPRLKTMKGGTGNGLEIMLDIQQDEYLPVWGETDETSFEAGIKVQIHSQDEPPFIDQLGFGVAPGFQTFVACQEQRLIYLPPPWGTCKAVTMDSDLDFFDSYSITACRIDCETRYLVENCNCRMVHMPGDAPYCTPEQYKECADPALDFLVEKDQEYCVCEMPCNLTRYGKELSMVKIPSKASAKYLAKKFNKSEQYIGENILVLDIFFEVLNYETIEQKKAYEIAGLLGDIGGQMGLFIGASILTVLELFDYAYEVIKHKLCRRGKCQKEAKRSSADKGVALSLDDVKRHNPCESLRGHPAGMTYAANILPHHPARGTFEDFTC
Description: FlexStation/FLIPR calcium-imaging assay, acid (MES)-induced response in ASIC1a expressing cells. The format is cell-based. Also noted: expressed in transfected cells. The procedure: Identification of ASIC Antagonists Using Calcium-Imaging
ASIC1a expressing HEK293 or CHO cells are grown in culture medium (DMEM with 10% FBS), in polystyrene culture flasks ([…]) at 37° C. in a humidified atmosphere of 5% CO2. Confluency of cells should be 80-90% on day of plating. Cells are rinsed with 10 ml of PBS and re-suspended by addition of culture medium and trituration with a 25 ml pipette.
The cells are seeded at a density of approximately 1×10^5 cells/ml for HEK293 and 8×10^4 for CHO cells (100 μl/well) in black-walled, clear bottom, poly-D-lysin pre-treated 96-well plates. Plated cells were allowed to proliferate for 48 h before loading with dye.
Fluo-4/AM (1 mg, Molecular Probes) is dissolved in 912 μl DMSO. The Fluo-4/AM stock solution (1 mM) is diluted with culture medium to a final concentration of 2 μM (loading solution).
The culture medium is aspirated from the wells, and 80 μl of the Fluo-4/AM loading solution is added to each well. The cells are incubated at 37° C. for 30 min. When CHO cells are used, probenicid at 2.5 mM (final concentration) is added in the loading solution.
After the loading period (15-20 min., the loading solution is aspirated and the cells are washed twice with 100 μl modified Assay Buffer (145 mM NaCl, 5 mM KCl, 5 mM CaCl2, 1 mM MgCl2, 10 mM HEPES, pH 7.4) to remove extracellular dye. Following the second wash, 100 μl modified Assay Buffer is added to each well and the fluorescence is measured in FLIPR™ or FlexStation™ (Molecular Devices, USA), or any other suitable equipment known to the skilled in the art. When CHO cells are used, probenicid at 2.5 mM (final concentration) is added in the wash buffer.
First addition: 50 μl test solution at a rate of 26 μl/sec and a starting height of 125 μl
Second addition: 50 μl MES solution (20 mM, 5 mM final concentration) at a rate of 26 μl/sec and a starting height of 115 μl.
Reading intervals: pre-incubation—120 sec. antagonist phase, addition of MES at 145 sec. and reading time with agonist 100 sec (total run time of 240 sec).
Fluorescence obtained after stimulation is corrected for the mean basal fluorescence (in modified Assay Buffer).
The MES-induced peak calcium response (or change in membrane potential), in the presence of test substance, is expressed relative to the MES response alone. Test substances that block the MES-induced calcium response (or change in membrane potential) are re-tested in triplicates. Confirmed hits are picked for further characterization by performing full dose-response curves to determine potency of each hit compound as represented by the IC50 values (i.e., the concentration of the test substance which inhibits 50% of the MES-induced calcium and/or membrane potentiation response; see, for example, FIG. 1).

Experiment [2] deals with T1, hASIC1a. In words: Two-electrode voltage clamp in Xenopus laevis oocytes expressing hASIC1a (OpusExpress). Also noted: expressed in transfected cells; host or cells: Xenopus laevis oocytes, nuclear microinjection of cDNA (e.g. in pCDNA3). The following applies: for effect on hASIC1a current evoked by pH 6.5 in oocytes (FIGS. 4A-4D): OpusExpress, two-electrode voltage clamp, dose-response. The format is cell-based. Put shortly: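 Two-electrode voltage clamp on Xenopus oocytes expressing homomeric hASIC1a, recorded on an automated multichannel system. Oocytes superfused with Ringer (HEPES, pH 7.4); currents evoked by MES-buffered acidic Ringer, with compound present in both control and acidic solutions, at room temperature.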

The mark [3] stands for this setting: calcium mobilization assay, HEK293, n=3-7, read-out: FPAT-ASIC1a human/HEK293/k21 IC50.

Structures are written as SMILES. “Also recorded” adds a separate entry of the source.

For the molecule `Cc1cc(OC2CCN(Cc3ccccc3)CC2)c2ccccc2n1` [Compound R, 4-(1-benzyl-piperidin-4-yloxy)-2-methyl-quinoline], the IC50 on hASIC1a [1] (FlexStation (Flex), Tables A-F, read-out: Biological Data (IC50 uM) h1a (Flex)) is 15 to 25 µM; at hASIC1a [2] (OpusExpress (OX), Tables A-F, h1a printed in some cells only, read-out: Biological Data (IC50 uM) h1a (OX)), 2 to 10 µM; on hASIC1a [2] (Table H, read-out: IC50 (μM) Opus Express (h1a)) it was 1.5 µM. On hASIC1a [1] (HEK-293 transiently expressing hASIC1a, intracellular calcium, increasing concentrations), the “inhibitory effect on acid-induced hASIC1a activity (FIG. 1)” value is on record as “dose-dependently inhibited”. Moreover, at hASIC1a [2], the “effect on hASIC1a current evoked by pH 6.5 in oocytes (FIGS. 4A-4D)” value was “effective modulators; also recorded: dose-dependent reduction”.
Regarding `COc1ccc(C(=O)CN2CCN(c3cc(C)nc4ccccc34)CC2)cc1` [Compound A, 1-(4-methoxy-phenyl)-2-[4-(2-methyl-quinolin-4-yl)-piperazin-1-yl]-ethanone], the IC50 at hASIC1a [1] (setting [3]) is below 10 µM. In addition, the “effect on hASIC1a current evoked by pH 6.5 in oocytes (FIGS. 4A-4D)” value on hASIC1a [2] is recorded as “effective modulators”.
The matching figures for `Fc1cccc2c(OC3CCN(Cc4ccccc4)CC3)cc(C(F)(F)F)nc12` [Compound B, 4-(1-benzyl-piperidin-4-yloxy)-8-fluoro-2-trifluoromethyl-quinoline]: below 10 µM and “dose-dependent reduction”.
